Experimental data: patent US20060276468A1, “Wood preservative formulations comprising Imazalil” (priority 2005, published 2006)

System: decay organisms
Experiment: soil contact veneer exposure test: dip-treated Scots pine sapwood veneers half buried in damp compost, pulled by hand weekly until failure
Settings: for synergy of the combination with imazalil sulfate: actual versus expected average time to failure; for estimated expected half life for 1% fungicide plus 1% Imazalil sulfate / Half life for 1% fungicide plus 1% Imazalil sulfate / Half life for fungicide at 2% active ingredient (ai): Example 3
Source text: The present invention also provides a simple exposure test for evaluating the wood preserving abilities of candidate ingredients or compositions. This exposure test is based on the premise that small dimension timber test specimens tend to fail more quickly than larger ones in soil contact situations.
It is preferable that the thickness of the veneers be greater than 0.1 mm, as veneers of lesser thickness can often be pulled apart by hand without undergoing exposure to decay organisms. Veneers which are thicker than 0.4 may take an excessive amount of time to fail the exposure test. In one embodiment, the thickness of the veneers is about 0.2 mm and the wood is the sapwood of the Scots pine (Pinus sylvestris). Other woods and thicknesses can be used. […] An example of convenient width and length dimensions are 15×50 mm. However, width and length are not critical provided they are kept consistent within a test, although very large or small length or width dimensions may be difficult to handle.
Accordingly, the test of the present invention comprises testing the integrity of a veneer after exposure to a decay-inducing environment. In one embodiment, this environment is damp compost in which decay organisms are present and water is present at just above the water holding capacity of the compost. If desired, other media can be used, and the test can be conducted at water contents which are below, at, or above the water-holding capacity of the media.
In general, the integrity of the veneer is inversely related to the length of exposure to the decay promoting environment. The integrity of the veneer can be tested by applying a force to the veneer and noting whether or not the veneer breaks. Thus, if wood preservative agents are applied to the veneers, these veneers would be expected to withstand longer exposure to the environment without breaking compared to control veneers without breaking.
The force applied to the veneers is preferably a force which pulls the two ends in opposite directions. The force can be applied by the use of an instrument or manually. If there is significant decay the veneer will break, generally near the junction between the portion submerged in the decay accelerating medium and the portion exposed to air. If the force is applied manually, it is preferable that the same individual conduct the test at the various exposure time points.
The veneers were cut such that both late wood and early wood were present in each veneer. The following biocides were tested: imazalil sulfate, dichlorophen, fenarimol, triclosan, and PHMB. To allow the mixing together of the five selected biocides in any combination the biocides were formulated such that they could be mixed together (all the percentages are mass/mass):
Test solutions were prepared and sets of veneers were dip treated such that there were 6 replicate veneers for each treatment under investigation. Additionally six veneers were dip treated in deionised water to act as water controls. […] Plastic containers (approximately 350×220 mm by at least 60 mm high) were part filled with John Innes Number 2 potting compost at a little above its water holding capacity. The veneers for this particular test were placed in six rows within a container such that approximately half the veneer was below the compost and half above. The veneers were placed in the compost such than those given a particular treatment were distributed throughout the container and were not grouped together. The containers, compost and veneers were weighed then incubated at about 30° C. and near 100% relative humidity in an incubator. Each week during the test the assembly was reweighed and deionised water added to bring it back to its original mass. After 3 weeks each veneer was examined in turn. It was held between the fore finger and thumb at each end and pulled to see if it could be broken. If it could be pulled apart a failure was recorded.

[1] = Example 5, solutions in acetone
[2] = Example 10, solutions in IMS (alcohol)

For “N,N-didecyl-N-methyl-poly(oxethyl)ammonium propionate [Bardap 26]”, the “half life, Low level with 0.8% Imazalil sulfate” value (0.8% fungicide plus 0.8% imazalil sulfate, IMS) was 4.83 weeks, the “average time for failure to occur, quat with Imazalil sulfate” value (Example 2, 0.18% active quat plus 0.30% imazalil sulfate (Table 3; text b187 says 0.2%)) was 5.33 weeks and the “average time for failure to occur, Quat Only” value (Example 2, 0.36% active quat in deionised water) was 5.00 weeks. The “estimated expected average time for failure, quat with Imazalil sulfate” value (Example 2, additive expectation) was 5.34 weeks, the “synergy of the combination with imazalil sulfate” value was “approximates that predicted in the case of no synergy” and the “expected half life, Low level with 0.8% Imazalil sulfate” value (additive expectation) was “{5.50 weeks}”. The “half life, High level (1.6%)” value (solutions in IMS) was 5.17 weeks and the “half life, Low level (0.8%)” value (solutions in IMS) was 4.67 weeks.
With `CCCCn1sc2ccccc2c1=O` [BBIT, N-butyl-1,2-benzisothiazolin-3-one] the “half life, With Imazalil sulfate” value (Example 9, 0.7% BBIT plus 0.2% imazalil sulfate) was 7.33 weeks, the “half life, No addition” value (Example 9, 1.4% BBIT or 0.4% imazalil sulfate alone, formulations which can be mixed together) was 8.33 weeks and the “estimated expected half life, With Imazalil sulfate” value (Example 9, additive expectation) was “{6.92 weeks}”.
`N#Cc1c(Cl)c(Cl)c(Cl)c(C#N)c1Cl` [Chlorothalonil, tetrachloroisophthalonitrile] was tested, and the “estimated expected half life for 1% fungicide plus 1% Imazalil” value (Example 5, additive expectation) was “{9.92 weeks}”, the “Half life for 1% fungicide plus 1% Imazalil” value [1] was 10.67 weeks and the “Half life for fungicide at 2% ai” value [1] was 12.17 weeks.
For `CC(Cc1ccc(C(C)(C)C)cc1)CN1C[C@@H](C)O[C@@H](C)C1` (mixture of isomers) [Fenpropimorph, (±)-cis-4-[3-(4-tert-butylphenyl)-2-methylpropyl]-2,6-dimethyl=morpholine], the “estimated expected half life for 1% fungicide plus 1% Imazalil sulfate” value (additive expectation) was 5.34 weeks, the “Half life for 1% fungicide plus 1% Imazalil sulfate” value (solutions in IMS (alcohol)) was 5.67 weeks and the “Half life for fungicide at 2% active ingredient (ai)” value (solutions in IMS (alcohol)) was 4.67 weeks. For the same compound, the “half life, Low level with 0.8% Imazalil” value (Example 10, 0.8% fungicide plus 0.8% imazalil, IMS (alcohol)) was 5.83 weeks, the “estimated expected half life, Low level with 0.8% Imazalil” value (Example 10, additive expectation) was “(5.17 weeks)” and the “half life, High level (1.6%)” value [2] was 4.17 weeks. For the same compound, the “half life, Low level (0.8%)” value [2] was 3.67 weeks.
`Oc1cc(Cl)ccc1Oc1ccc(Cl)cc1Cl` [Trichlosan, 5-chloro-2-(2,4-dichlorophenoxy)phenol] was tested, and the “average time for failure to occur (half life), combination with imazalil sulfate” value (Example 1, 0.3% dichlorophen, 0.1% triclosan, 0.4% fenarimol or 0.4% PHMB, each plus 0.2% imazalil sulfate) was 5.50 weeks, the “estimated expected average time for failure, combination with imazalil sulfate” value (Example 1, additive expectation, midway between the two single biocides) was “(4.75) weeks” and the “average time for failure to occur (half life)” value (Example 1, biocide alone: 0.6% dichlorophen, 0.2% triclosan, 0.8% fenarimol, 0.8% PHMB, 0.4% imazalil sulfate, 6 veneers) was roughly 4.33 weeks. The “synergy of the combination with imazalil sulfate” value was “positive synergy”.
In the case of `COC(=O)N(OC)c1ccccc1COc1ccn(-c2ccc(Cl)cc2)n1` [Pyraclostrobin, methyl N-{2-[1-(4-chlorophenyl)-1H-pyrazol-3-yloxymethyl]phenyl}(N-methoxy)carbamate], the “estimated expected half life for 1% fungicide plus 1% Imazalil sulfate” value (additive expectation) is reported as 6.09 weeks, the “Half life for 1% fungicide plus 1% Imazalil sulfate” value (solutions in IMS (alcohol)) is reported as 6.50 weeks and the “Half life for fungicide at 2% active ingredient (ai)” value (solutions in IMS (alcohol)) is reported as 6.17 weeks.
